Test results: patent US20240012012A1, “BIOMARKER AND TREATMENT FOR VASCULAR COGNITIVE IMPAIRMENT AND RELATED CONDITIONS” (priority 2020, published 2024)

What was measured:
[1] = tested on: neurofilament light protein (NFL); assay: Serum NFL quantification (Simoa NF-Light), murine heart failure model (Example 1); assay type: in vivo, mouse; settings: 50 μg/kg/day and 500 μg/kg/day, relative to HF-saline
Procedure: Male C57Bl/6J adult mice (Harlan, 8-10 weeks old) were randomly assigned to either the sham control (n=12) or heart failure (HF) group (n=44). All mice prior to surgery were weighed and anesthetized. For the HF mice, myocardial infarction (MI) was induced by ligation of the left coronary artery (LCA). Under anesthesia (2.5% isoflurane in a mixture of air and 02) a thoracotomy was performed at the fourth left intercostal space and the LCA permanently ligated to induce a myocardial infarction (MI). Occlusion of the LCA was confirmed by observing blanching, a slight change in color of the anterior wall of the left ventricle downstream of the ligature. Sham mice underwent the same procedure with the exception of ligating the LCA.
Following 5 weeks post MI surgery, mice were treated for […] with daily subcutaneous injections as follows:
NFL Quantification: Immediately following the final NOR test, mice were sacrificed and serum samples were obtained for NFL quantification using the Simoa™ NF-Light® kit (Quanterix Cat #103186, Lot #501953), which quantifies neurofilament light (NFL). Assay samples were diluted 1:4 and calibrators were undiluted. As samples and calibrators were run in duplicate and analyzed using the HD-X Analyzer software package.

[2] = tested on: neurofilament light protein (NFL); assay: Serum NFL levels in patients undergoing coronary artery bypass grafting (CABG); assay type: in vivo, human; settings: 200 μg/kg/day s.c. for 21 days, vs saline vehicle
Text: It is well documented that patients undergoing coronary artery bypass grafting (CABG) tend to experience post-surgical cognitive dysfunction. The present study elucidates the response in serum NFL levels to CABG and how that response may be modulated by Ang-(1-7) treatment. Potential CABG participants underwent a screening visit between 2 and 15 days prior to CABG surgery, including a full medical history and physical examination to rule out dementia (Mini-Mental State Exam score less than 25), and depression (Geriatric Depression Scale score greater than 10). Between 1 and 15 days prior to CABG surgery, participants underwent neuropsychological evaluation including memory testing and blood draws for clinical pathology assessment, NFL biomarker assessment. […] At 21 days post-surgery, additional blood samples were obtained, and serum NFL levels were measured.
The serum NFL concentration was measure in six subjects prior to CABG surgery and in 18 age-matched control subjects. […] Two subjects were administered saline vehicle control. […] Following surgery, serum NFL levels increased about four-fold in the patients treated with saline vehicle compared to pre-surgery level (p=0.0002).

TNFα = assay: Plasma cytokines, MILLIPLEX MAP Mouse High Sensitivity Multiplex Immunoassay; assay type: in vivo; settings: 50 μg/kg/day; values at or below assay threshold represented as 3.12
Procedure: Mice were assigned randomly to the following treatment groups: Control-Saline (sham MI surgery, treated with saline), HF-treated (HF-PNA5, or HF-Ang-(1-7) with either 50 μg/kg/day, or 500 μg/kg/day), or HF-saline. Mice recovered for 5 weeks following MI before receiving 24 days of daily subcutaneous drug treatment. Within the last 3 days of injections, animals underwent Novel Object Recognition (NOR) testing (FIG. 6). […]
Cytokine concentrations were measured in the brain lysates and plasma samples by multiplex immunoassay using a MAGPIX Multiplexing Instrument and accompanying Multiplex Analyst software (MILLIPLEX MAP Mouse Cytokine/Chemokine Magnetic Bead Panel-Immunology Multiplex Assay; MCYTOMAG-70 K; Millipore Sigma, Burlington, Massachusetts). […] All samples were run in duplicate, and the results were analyzed using ANOVA and relevant post using GraphPad Prism9. To create a composite cytokine score, we calculated the z-scores for IL-2, IL-13, and IL-17 brain cytokines. […] The z-score was calculated for each cytokine using the following equation: […]

brain cytokines = assay: Whole brain lysate cytokines, MILLIPLEX MAP Mouse High Sensitivity Multiplex Immunoassay; assay type: in vivo
Procedure: Mice were assigned randomly to the following treatment groups: Control-Saline (sham MI surgery, treated with saline), HF-treated (HF-PNA5, or HF-Ang-(1-7) with either 50 μg/kg/day, or 500 μg/kg/day), or HF-saline. Mice recovered for 5 weeks following MI before receiving 24 days of daily subcutaneous drug treatment. Within the last 3 days of injections, animals underwent Novel Object Recognition (NOR) testing (FIG. 6). Animal treatment groups were as listed: heart failure (HF)-saline treated n=15, (HF-Saline), Sham surgery-saline treated n=15 (Control-Saline), HF-Ang-(1-7) at 500 μg/kilogram body weight/day for 24 days (HF-A500) n=15, HF-Ang-(1-7) at 50 μg/kg body weight/day for 24 days (HF-A50) n=15, HF-PNA5 at 500 μg/kilogram body weight/day (HF-P500) n=15, HF-PNA5 at 50 μg/kilogram body weight/day (HF-P50) n=15. Following MI, up to 7 mice died within a group resulting in varying number of mice per group that were available to undergo treatment, NOR testing, and provide serum samples.
Mice were anesthetized with isoflurane and rapidly decapitated. Brains were separated from the skull and quickly cut into two hemispheres. The halves of the brain were then rapidly frozen in corning tubes in liquid nitrogen and stored at −80° C. One half of each brain was lysed using 1 mL RIPA buffer (1% Triton X-100, 0.1% SDS, 1×PBS) with protease (protease inhibitor cocktail 100× [Sigma P8340]) and phosphatase inhibitors (phosphatase inhibitor cocktail 100× [Sigma P5726]). Tissue was then sonicated using an ultrasonic cell disruptor at 30% 40% amplitude for 1 min. Samples were returned to ice in between sonication to prevent the tissue from warming. Samples were then centrifuged at 4° C. or 15 min at 13,000×g. The supernatant was collected and stored at −80° C. Total protein was measured in the range of […]. Brain lysates were used for multiplex immunoassays.
Cytokine concentrations were measured in the brain lysates and plasma samples by multiplex immunoassay using a MAGPIX Multiplexing Instrument and accompanying Multiplex Analyst software (MILLIPLEX MAP Mouse Cytokine/Chemokine Magnetic Bead Panel-Immunology Multiplex Assay; MCYTOMAG-70 K; Millipore Sigma, Burlington, Massachusetts). Simultaneous measurements of granulocyte colony-stimulating factor (GCSF), granulocyte-macrophage colony-stimulating factor, interferon, interleukin (IL)-1a, IL-1B, IL-2, IL-4, IL-5, IL-6, IL-7, IL-9, IL-10, IL-12 (p40), IL-12 (p70), IL-13, IL-15, IL-17, interferon-induced protein 10, chemokine (C-X-C motif) (CXC) ligand 1 (KC), chemokine (C-C motif) ligand (CCL) 2 (monocyte chemoattractant protein-1), CCL3 [macrophage inflammatory protein (MIP) 1a], CCL4 (MIP1b), CXC ligand 2 (MIP2), CCL5 [RANTES (regulated on activation normal T cell expressed and secreted)], and tumor necrosis factor-alpha (TNF-α) were captured. All samples were run in duplicate, and the results were analyzed using ANOVA and relevant post using GraphPad Prism9. To create a composite cytokine score, we calculated the z-scores for IL-2, IL-13, and IL-17 brain cytokines. Z-scores were then added to create a composite cytokine score. The z-score was calculated for each cytokine using the following equation: […]

Substance: DRVYIHP [Ang-(1-7), Asp-Arg-Val-Tyr-Ile-His-Pro, Mas receptor agonist]
- HF-induced increase in serum NFL levels [1]: reversed
- post-surgical increase in serum NFL [2]: significantly reduced that post-surgical increase
- plasma TNFα, mean (TNFα): 3.12 pg/mL
- brain IL-1α, mean ± SE (brain cytokines; 50 ug/kg): 95.6 ± 8.4 pg/mL
- brain IL-10 (row head as printed; title says IP-10), mean ± SE (brain cytokines; 50 ug/kg): 42.2 ± 3.2 pg/mL
- brain IL-17, mean ± SE (brain cytokines; 50 ug/kg): 44.1 ± 2.8 pg/mL
- brain IL-1α, mean ± SE (brain cytokines; 500 ug/kg): 95.6 ± 5.5 pg/mL
- brain IL-2, mean ± SE (brain cytokines; 500 ug/kg): 50.9 ± 1.9 pg/mL
- brain IL-5, mean ± SE (brain cytokines; 500 ug/kg): 53.2 ± 2.7 pg/mL
- brain IL-10 (row head as printed; title says IP-10), mean ± SE (brain cytokines; 500 ug/kg): 43.8 ± 4.2 pg/mL
- brain IL-17, mean ± SE (brain cytokines; 500 ug/kg): 42.0 ± 1.1 pg/mL
- brain lysate levels of IL-1α, IL-2, IL-5, IL-13, and IL-17 compared to HF-Saline (brain cytokines; A50 or A500 (50 or 500 ug/kg)): significantly increased
